According to PMC10460039 (Molecules, 2023):
Like-named read-outs stand apart in the source and are kept apart here.

What was measured:
tyrosinase [1] = target: T1, tyrosinase (Agaricus bisporus, UniProt C7FF04); assay: Tyrosinase inhibitory activity using L-DOPA as substrate; assay type: biochemical, mushroom; conditions: read-out: Inhibition Rate at 64 μM (%)
Protocol: Compounds c1~c29 were tested for their tyrosinase inhibitory activities according to previous reports. Each compound was dissolved in DMSO and diluted to different concentrations. Tyrosinase and L-DOPA were dissolved in PBS solution (50 mM, pH 6.8). To 140 μL of tyrosinase (final concentration: 66.7 U/mL) solution, 10 μL of compound was added and incubated for 5 min at 25 °C, followed by the addition of 50 µL of L-DOPA (final concentration: 2 mM). Then, absorbance of the mixture was read at 475 nm. The inhibitory activity of each compound was calculated using DMSO as a blank control.
Target sequence in this assay (C7FF04 2-392): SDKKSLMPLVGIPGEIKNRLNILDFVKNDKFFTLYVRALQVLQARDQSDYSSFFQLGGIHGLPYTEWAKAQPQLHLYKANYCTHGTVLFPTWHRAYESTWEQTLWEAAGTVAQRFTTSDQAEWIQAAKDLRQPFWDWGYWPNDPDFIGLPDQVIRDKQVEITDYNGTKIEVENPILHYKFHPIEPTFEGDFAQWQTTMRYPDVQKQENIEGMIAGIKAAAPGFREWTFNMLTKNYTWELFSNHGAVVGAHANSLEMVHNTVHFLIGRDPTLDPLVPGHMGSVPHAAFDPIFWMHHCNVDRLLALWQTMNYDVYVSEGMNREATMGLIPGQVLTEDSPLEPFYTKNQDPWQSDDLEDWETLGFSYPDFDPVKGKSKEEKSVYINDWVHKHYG

tyrosinase [2] = target: T1, tyrosinase; assay: Fluorescence quenching of tyrosinase (Stern–Volmer); assay type: binding, mushroom; parameters: purchased Sigma-Aldrich
Protocol: An amount of 1 μL of compound c27 solution was titrated into 2 mL of tyrosinase and incubated for 5 min. […] The quenching mechanism and parameters were investigated by the Stern–Volmer equation.
Target sequence in this assay (C7FF04 1-392 limits assumed): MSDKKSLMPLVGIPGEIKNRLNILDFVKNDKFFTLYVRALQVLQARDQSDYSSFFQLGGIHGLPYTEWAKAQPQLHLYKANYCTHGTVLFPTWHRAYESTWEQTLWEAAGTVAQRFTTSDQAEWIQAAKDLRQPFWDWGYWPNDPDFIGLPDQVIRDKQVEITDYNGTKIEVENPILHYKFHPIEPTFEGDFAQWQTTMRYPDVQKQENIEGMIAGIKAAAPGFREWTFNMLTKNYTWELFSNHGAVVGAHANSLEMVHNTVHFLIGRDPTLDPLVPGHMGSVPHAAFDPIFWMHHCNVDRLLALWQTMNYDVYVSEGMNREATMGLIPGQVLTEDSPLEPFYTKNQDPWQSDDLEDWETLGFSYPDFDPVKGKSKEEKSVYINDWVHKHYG

tyrosinase [3] = target: T1, tyrosinase; assay: Circular dichroism spectra, secondary structure contents of tyrosinase; parameters: purchased Sigma-Aldrich; species or system mushroom
Protocol: The CD spectra of tyrosinase-compound c27 mixture were measured according to previous reports. To 190 µL of tyrosinase solution (final concentration: 64.65 μM) in PBS, 10 µL of compound c27 (1.28, 2.56, and 3.84 mM) was added and incubated for 5 min. Then, the CD spectra were measured at 195~250 nm at room temperature.
Target sequence in this assay (C7FF04 1-392): as the sequence (C7FF04 1-392 limits assumed) above

tyrosinase [4] = target: T1, tyrosinase; assay: Inhibition kinetic study (enzyme and substrate kinetics, Lineweaver–Burk); assay type: biochemical, mushroom; conditions: c27 0~4 μM
Protocol: The kinetics studies were carried out using the same experimental method as described above. For enzyme kinetics, the absorbance of the mixture containing different concentrations of tyrosinase (final concentration: 66.7 U/mL) and compound c27 (0, 2, 3, and 4 μM) was recorded at 475 nm, respectively. For substrate kinetics, the absorbance of the mixture containing different concentrations of L-DOPA (final concentration: 2, 4, 6 and 8 mM) and compound c27 (0, 2, 3 and 4 μM) was recorded at 475 nm, respectively.
Target sequence in this assay (C7FF04 2-392): as the sequence (C7FF04 2-392) above

tyrosinase [5] = target: T1, tyrosinase; assay: Three-dimensional fluorescence spectra of tyrosinase–compound mixture; parameters: species or system mushroom; conditions: 3D fluorescence
Protocol: The 3D fluorescence spectra of tyrosinase-compound c27 mixture was measured according to previous reports. To 3 mL of tyrosinase solution (final concentration: 168 μM) in PBS, 10 µL of compound c27 (2 mM) was added and incubated for 5 min. Then, the 3D fluorescence spectra analyses were conducted in room temperature. The excitation and emission wavelengths were 200–600 nm and the slit width was 2.5 nm.
Target sequence in this assay (C7FF04 2-392): as above

[6] = compound concentration 64 μM, L-DOPA substrate

## C=CCc1ccc(OC(=O)C=Cc2ccccc2)c(OC)c1 [c1, 4-allyl-2-methoxyphenyl cinnamate]
Tyrosinase [1]; [6]
  inhibition at 64 µM: 12 ± 1%

## C=CCc1ccc(OC(=O)/C=C/c2ccccc2C)c(OC)c1 [c2, 4-allyl-2-methoxyphenyl (E)-3-(o-tolyl)acrylate]
Tyrosinase [1]; [6]
  inhibition at 64 µM: 12 ± 0.3%

## C=CCc1ccc(OC(=O)/C=C/c2cccc(C)c2)c(OC)c1 [c3, 4-allyl-2-methoxyphenyl (E)-3-(m-tolyl)acrylate]
Tyrosinase [1]; [6]
  inhibition at 64 µM: 39 ± 3%

## C=CCc1ccc(OC(=O)/C=C/c2ccc(C)cc2)c(OC)c1 [c4, 4-allyl-2-methoxyphenyl (E)-3-(p-tolyl)acrylate]
Tyrosinase [1]; [6]
  inhibition at 64 µM: 15 ± 1%

## C=CCc1ccc(OC(=O)/C=C/c2ccccc2Cl)c(OC)c1 [c5, 4-allyl-2-methoxyphenyl (E)-3-(2-chlorophenyl)acrylate]
Tyrosinase [1]; [6]
  inhibition at 64 µM: 29 ± 3%

## C=CCc1ccc(OC(=O)/C=C/c2cccc(Cl)c2)c(OC)c1 [c6, 4-allyl-2-methoxyphenyl (E)-3-(3-chlorophenyl)acrylate]
Tyrosinase [1]; [6]
  inhibition at 64 µM: 17 ± 2%

## C=CCc1ccc(OC(=O)/C=C/c2ccc(Cl)cc2)c(OC)c1 [c7, 4-allyl-2-methoxyphenyl (E)-3-(4-chlorophenyl)acrylate]
Tyrosinase [1]
  inhibition at 64 µM: 24 ± 1%

## C=CCc1ccc(OC(=O)/C=C/c2ccccc2F)c(OC)c1 [c8, 4-allyl-2-methoxyphenyl (E)-3-(2-fluorophenyl)acrylate]
Tyrosinase [1]; [6]
  inhibition at 64 µM: 17 ± 3%

## C=CCc1ccc(OC(=O)/C=C/c2cccc(F)c2)c(OC)c1 [c9, 4-allyl-2-methoxyphenyl (E)-3-(3-fluorophenyl)acrylate]
Tyrosinase [1]; [6]
  inhibition at 64 µM: 17 ± 3%

## C=CCc1ccc(OC(=O)/C=C/c2ccc(F)cc2)c(OC)c1 [c10, 4-allyl-2-methoxyphenyl (E)-3-(4-fluorophenyl)acrylate]
Tyrosinase [1]; [6]
  inhibition at 64 µM: 17 ± 1%

## C=CCc1ccc(OC(=O)/C=C/c2ccccc2Br)c(OC)c1 [c11, 4-allyl-2-methoxyphenyl (E)-3-(2-bromophenyl)acrylate]
Tyrosinase [1]; [6]
  inhibition at 64 µM: 10 ± 0.4%

## C=CCc1ccc(OC(=O)/C=C/c2cccc(Br)c2)c(OC)c1 [c12, 4-allyl-2-methoxyphenyl (E)-3-(3-bromophenyl)acrylate]
Tyrosinase [1]; [6]
  inhibition at 64 µM: 3 ± 0.8%

## C=CCc1ccc(OC(=O)/C=C/c2ccc(Br)cc2)c(OC)c1 [c13, 4-allyl-2-methoxyphenyl (E)-3-(4-bromophenyl)acrylate]
Tyrosinase [1]; [6]
  inhibition at 64 µM: 13 ± 1%

## C=CCc1ccc(OC(=O)/C=C/c2cccc(O)c2)c(OC)c1 [c14, 4-allyl-2-methoxyphenyl (E)-3-(3-hydroxyphenyl)acrylate]
Tyrosinase [1]; [6]
  inhibition at 64 µM: 67.6%

## C=CCc1ccc(OC(=O)/C=C/c2ccc(O)cc2)c(OC)c1 [c15, 4-allyl-2-methoxyphenyl (E)-3-(4-hydroxyphenyl)acrylate]
Tyrosinase [1]; [6]
  inhibition at 64 µM: 76.1%

## C=CCc1ccc(OC(=O)/C=C/c2ccccc2[N+](=O)[O-])c(OC)c1 [c16, 4-allyl-2-methoxyphenyl (E)-3-(2-nitrophenyl)acrylate]
Tyrosinase [1]; [6]
  inhibition at 64 µM: 5 ± 0.1%

## C=CCc1ccc(OC(=O)/C=C/c2cccc([N+](=O)[O-])c2)c(OC)c1 [c17, 4-allyl-2-methoxyphenyl (E)-3-(3-nitrophenyl)acrylate]
Tyrosinase [1]; [6]
  inhibition at 64 µM: 9 ± 0.8%

## C=CCc1ccc(OC(=O)/C=C/c2ccc([N+](=O)[O-])cc2)c(OC)c1 [c18, 4-allyl-2-methoxyphenyl (E)-3-(4-nitrophenyl)acrylate]
Tyrosinase [1]; [6]
  inhibition at 64 µM: 14 ± 1%

## C=CCc1ccc(OC(=O)/C=C/c2ccccc2OC)c(OC)c1 [c19, 4-allyl-2-methoxyphenyl (E)-3-(2-methoxyphenyl)acrylate]
Tyrosinase [1]; [6]
  inhibition at 64 µM: 3 ± 0.2%

## C=CCc1ccc(OC(=O)/C=C/c2cccc(OC)c2)c(OC)c1 [c20, 4-allyl-2-methoxyphenyl (E)-3-(3-methoxyphenyl)acrylate]
Tyrosinase [1]; [6]
  inhibition at 64 µM: 3 ± 0.1%

## C=CCc1ccc(OC(=O)/C=C/c2ccc(OC)cc2)c(OC)c1 [c21, 4-allyl-2-methoxyphenyl (E)-3-(4-methoxyphenyl)acrylate]
Tyrosinase [1]; [6]
  inhibition at 64 µM: 7 ± 0.9%

## C=CCc1ccc(OC(=O)/C=C/c2ccccc2C(F)(F)F)c(OC)c1 [c22, 4-allyl-2-methoxyphenyl (E)-3-(2-(trifluoromethyl)phenyl)acrylate]
Tyrosinase [1]; [6]
  inhibition at 64 µM: 6 ± 0.5%

## C=CCc1ccc(OC(=O)/C=C/c2cccc(C(F)(F)F)c2)c(OC)c1 [c23, 4-allyl-2-methoxyphenyl (E)-3-(3-(trifluoromethyl)phenyl)acrylate]
Tyrosinase [1]; [6]
  inhibition at 64 µM: 5 ± 0.2%

## C=CCc1ccc(OC(=O)/C=C/c2ccc(C(F)(F)F)cc2)c(OC)c1 [c24, 4-allyl-2-methoxyphenyl (E)-3-(4-(trifluoromethyl)phenyl)acrylate]
Tyrosinase [1]; [6]
  inhibition at 64 µM: 2 ± 0.1%

## C=CCc1ccc(OC(=O)/C=C/c2ccc(N(C)C)cc2)c(OC)c1 [c25, 4-allyl-2-methoxyphenyl (E)-3-(4-(dimethylamino)phenyl)acrylate]
Tyrosinase [1]; [6]
  inhibition at 64 µM: 26 ± 1%

## C=CCc1ccc(OC(=O)/C=C/c2ccc(O)c(OC)c2)c(OC)c1 [c26, 4-allyl-2-methoxyphenyl (E)-3-(4-hydroxy-3-methoxyphenyl)acrylate]
Tyrosinase [1]; [6]
  inhibition at 64 µM: 47 ± 1%

## C=CCc1ccc(OC(=O)/C=C/c2ccc(O)c(O)c2)c(OC)c1 [c27, 4-allyl-2-methoxyphenyl (E)-3-(3,4-dihydroxyphenyl)acrylate]
Tyrosinase [2]
  number of binding sites (in words): one
  quenching mechanism: static
Tyrosinase [2]; 304 K
  KSV (Stern–Volmer quenching constant): 47700 L/mol
  Kq (quenching rate constant): 4.77e+12 L/mol
  n (number of binding sites): 0.59
Tyrosinase [2]; 307 K
  KSV (Stern–Volmer quenching constant): 43200 L/mol
  Kq (quenching rate constant): 4.32e+12 L/mol
  n (number of binding sites): 0.86
Tyrosinase [2]; 310 K
  KSV (Stern–Volmer quenching constant): 42900 L/mol
  Kq (quenching rate constant): 4.29e+12 L/mol
  n (number of binding sites): 0.99
Tyrosinase [3]; [Tyrosinase]:[c27] 1:1
  Random Coil (%): 28.23%
  α-Helix (%): 7.12%
  β-Sheet (%): 49.00%
  β-Turn (%): 17.63%
Tyrosinase [3]; [Tyrosinase]:[c27] 1:2
  Random Coil (%): 28.12%
  α-Helix (%): 9.56%
  β-Sheet (%): 49.23%
  β-Turn (%): 18.37%
Tyrosinase [3]; [Tyrosinase]:[c27] 1:3
  Random Coil (%): 27.94%
  α-Helix (%): 9.85%
  β-Sheet (%): 49.27%
  β-Turn (%): 18.55%
Tyrosinase [1]; [6]
  inhibition at 64 µM: 81.5%
Tyrosinase [4]; Lineweaver–Burk plots
  inhibition type: mixed-type
Tyrosinase [4]; ν versus [E] plots
  reversibility of inhibition: reversible
Tyrosinase [5]; Tyr and Trp residues
  reduction of intensity of peak 1 (λex/λem = 280 nm/340 nm): 21.47%
Tyrosinase [5]; polypeptide strand transition
  reduction of intensity of peak 2 (λex/λem = 230 nm/335 nm): 32.71%

## C=CCc1ccc(OC(=O)/C=C/c2ccc(Cl)c(F)c2)c(OC)c1 [c28, 4-allyl-2-methoxyphenyl (E)-3-(4-chloro-3-fluorophenyl)acrylate]
Tyrosinase [1]; [6]
  inhibition at 64 µM: 19 ± 0.2%

## C=CCc1ccc(OC(=O)/C=C/c2ccc3c(c2)OCO3)c(OC)c1 [c29, 4-allyl-2-methoxyphenyl (E)-3-(benzo[d][1,3]dioxol-5-yl)acrylate]
Tyrosinase [1]; [6]
  inhibition at 64 µM: 4 ± 1%
